Like-named read-outs stand apart in the source and are kept apart here.

For orientation: IC50 means the concentration needed to halve the response being measured.

One data set in a line: PBS stability. The class given is physicochemical. Particulars: PBS pH 7.4, 23° C. Here is the method: Stability was determined in the presence of PBS pH 7.4 with 0.1% DMSO. […] One plate was removed at each time point (0, 2, 4, 8, 24, and 48 hours). […] Additionally, to the remaining material at each time point, acetonitrile was added to force dissolution of compound (to test for recovery of compound). An aliquot of this was also analyzed by UPLC-MS.

Data set [1] concerns mitochondrial membrane potential of S. cerevisiae. In words: Secondary mitochondrial disruption assay (JC-1 dye, flow cytometry). Particulars: living S. cerevisiae treated with 1 μM compound; AIDs 624062, 624068. The class given is cell-based, Saccharomyces cerevisiae. Here is the method:
Procedures • Use a Thermo Combi nL to dispense 20 μL/well of assay media into all wells. • Add 2 μL of Amphotericin B to control wells. • Pin 100 nL of test compound from compound plates into assay plates using a CyBi-Well pin tool. • Dispense 20 μL/well of culture into the assay media in all wells. • Incubate the plates in a humidified (90% humidity) Liconic incubator at 37° C. without agitation for 48 hours. • Shake plates briefly. • Read OD600 of wells on a standard plate reader as measure of relative fungal growth. Envision (Perkin Elmer) plate reader settings: Ex Photometric 600, Top read. 4.5. Secondary Mitochondrial Disruption Assay (AID No. 624062 and 624068)
The fluorescent dye JC-1 was used to quantify the ability of compounds to disrupt the mitochondrial membrane potential of fungi. Mitochondrial membrane depolarization is indicated by a decrease in the yellow/green fluorescence intensity ratio. This is a non-gating, binning assay that establishes whether inhibition of fungal growth in glycerol results from direct compromise of mitochondrial function or alternative components of fungal respiratory metabolism. Probes that disrupt mitochondrial function as well as those that perturb other metabolic components are desirable. […]
Additionally, direct impairment of mitochondrial function in C. glabrata and S. cerevisiae was assessed using a fluorescence assay.
A general note: Flow cytometry measures light scatter and fluorescence of single cells or particles in a stream.

In data set [2] the test system is Candida albicans CaCi-2. In words: Broth microdilution growth inhibition of C. albicans CaCi-2 in presence or absence of fluconazole. Format: cell-based. Conditions: CACI2, RPMI media. Here is the method:
Growth inhibition of I-B-4 (ML316) against Candida albicans CaCi-2 in the presence or absence of fluconazole was assessed using the broth microdilution method with RPMI media.
(Broth dilution looks for growth in wells or tubes with falling amounts of substance.)

Data set [3] deals with Candida albicans strain SC5314. In words: Colony counts over time, C. albicans SC5314 in RPMI (FIG. 14). The class given is cell-based. Particulars: colonies counted after 24 and 48 hours. Here is the method:
Compound I-B-4 (ML316) was studied in fluconazole-sensitive Candida albicans strain SC5314. The SC5314 strain was inoculated into RPMI media at 10^3 CFU/mL in the presence or absence of 5 μM I-B-4 (ML316) and 32 ug/mL fluconazole. Colonies were plated from the cultures after 24 and 48 hours and counted.

The subject of data set [4] is Candida albicans CaCi-2. In words: Colony counts over time, C. albicans CaCi-2 in RPMI (FIG. 15). Conditions: colonies counted after 24 and 48 hours. The class given is cell-based. Here is the method:
[…] The CaCi-2 strain was inoculated into RPMI media at 10^3 CFU/mL in the presence or absence of 5 μM I-B-4 (ML316) and 32 ug/mL fluconazole. Colonies were plated from the cultures after 24 and 48 hours and counted.

The next data set has as its target bovine bc1 complex (Bos taurus, UniProt P00157). Conditions: read-out: IC50, isolated bovine bc1 complex; studies by Trumpower et al.; cited from earlier work.
The test system of a further data set is HeLa cells. Particulars: Hayakawa et al. 1971, cited from earlier work.
[5] abbreviates: 5 μM I-B-4 and 32 ug/mL fluconazole.

Turning to `CCOC(=O)N1C(=O)C2(CCCCC2)N(c2ccc(F)cc2)C1=S` [CID 56604860, Ethyl 1-(4-fluorophenyl)-4-oxo-2-thioxo-1,3-diazaspiro[4.5]decane-3-carboxylate], the “Stability in PBS solution, % remaining after a 48-hour incubation” value in “PBS stability” is above 60%. For the same molecule, the “Depolarization of the mitochondrial membrane (JC-1 dye)” value in data set [1] is recorded as “depolarization of the mitochondrial membrane does not occur”. Moreover, the IC50 with Candida albicans CaCi-2 [2] (absence of fluconazole (FIG. 8), read-out: IC50 against C. albicans CaCi-2 growth, compound alone) was 120 nM; in the data set on Candida albicans CaCi-2 [2] (presence of fluconazole (FIG. 8), read-out: IC50 against C. albicans CaCi-2 growth, with FCZ), 10 nM. Moreover, the “Cytotoxicity to fluconazole-sensitive C. albicans SC5314, compound alone” value in data set [3] (5 μM I-B-4) was “cytotoxic”. For the same molecule, the “Cytotoxicity to fluconazole-sensitive C. albicans SC5314, combination with fluconazole (FCZ)” value in data set [3] (setting [5]) is given as “cytotoxic”. Also, the “Cytotoxicity to fluconazole-resistant C. albicans CaCi-2, compound alone” value in the data set on Candida albicans CaCi-2 [4] (5 μM I-B-4) was “cytotoxic”. Besides, the “Cytotoxicity to fluconazole-resistant C. albicans CaCi-2, combination with fluconazole (FCZ)” value with Candida albicans CaCi-2 [4] (setting [5]) is “cytotoxic”.
With `C/C=C/C1[C@H]2C[C@@H](C)CC[C@@H]2C(C)=C[C@H]1C(=O)c1c(O)c(-c2ccc(O)cc2)c[nH]c1=O` (some centres unmarked) [ilicicolin H, reference compound], the IC50 at bovine bc1 complex is 200 nM. The “MIC against HeLa cells” value was 2 µg/mL with HeLa cells and 4.6 µM with HeLa cells (same value converted).

Values taken from patent US9944607B2, “Thiohydantoin derivatives and uses thereof” (Whitehead Institute for Biomedical Research, priority 2012, dated 2018).
